Where two headings read alike, the source gives them in different places.
Legend:
[1] = test system: opioid naïve individuals; assay: fMRI response to morphine in opioid naïve individuals; format: in vivo, human
Text: Some of these have an oppositely valenced signal to that observed for aversive painful stimuli. […] This observation is in counter distinction to that observed for cortical activation by painful stimuli (see above).

[2] = test system: patient; assay: Medication history of a patient with facial burning and numbness following trigeminal rhizotomy; format: in vivo, human; conditions: single patient; facial burning and numbness after rhizotomy for trigeminal neuralgia
Procedure: In a similar manner as that described above for a healthy volunteer, we examined fMRI activation in a patient who had facial burning and numbness following trigeminal rhizotomy one year previously for trigeminal neuralgia. Medications, including gabapentin and tegretol, had been unhelpful. Careful questioning and psychophysical evaluation was performed. […] They also had decreased warm and cold sensation on the affected side vs. the intact side. They underwent functional neuroimaging for thermal stimuli applied to the V2 and V3 distributions on the right and left. FIGS. 3A-3E show the results of cortical activation from this patient. There was a decrease in activation to a 45° C. stimulus applied to the affected area and an apparent increase in signal for the same stimulus applied to the ipsilateral V3 distribution.

[3] = test system: healthy human volunteers
Text: We also investigated the effects of the general anesthetic agent propofol on cerebral structures involved in the processing of vibrotactile information. Using positron emission tomography (PET) and the H(2)(15)O bolus technique, we measured regional distribution of cerebral blood flow (CBF) in eight healthy human volunteers. They were scanned under five different levels of propofol anesthesia. Using a computer-controlled infusion, the following plasma levels of propofol were targeted: Level W (Waking, 0 microg/ml), Level 1 (0.5 microg/ml), Level 2 (1.5 microg/ml), Level 3 (3.5 microg/ml), and Level R (Recovery). At each level of anesthesia, two 3-min scans were acquired with vibrotactile stimulation of the right forearm either on or off. The level of consciousness was evaluated before each scan by the response of the subject to a verbal command.

## CN1CC[C@]23c4c5ccc(O)c4O[C@H]2[C@@H](O)C=C[C@H]3[C@H]1C5 [morphine]
[1]
  fMRI activation in subcortical structures: activation in deep subcortical structures including those involved in reward
[1]; low-dose morphine
  fMRI signal in the SI cortex: decrease in signal in SI

## NC(=O)N1c2ccccc2C=Cc2ccccc21 [tegretol]
[2]
  clinical benefit of medication: unhelpful

## NCC1(CC(=O)O)CCCCC1 [gabapentin]
[2]
  clinical benefit of medication: unhelpful

## CC(C)c1cccc(C(C)C)c1O [propofol]
[3]; Level 1, target plasma 0.5 microg/ml
  level of consciousness: slightly drowsy
[3]; Level 1 through 3 (0.5-3.5 microg/ml target plasma), vibrotactile stimulation of right forearm
  vibration-induced increases in rCBF in the primary and secondary somatosensory cortex: suppressed vibration-induced increases in rCBF
[3]; Level 2, target plasma 1.5 microg/ml
  level of consciousness: slurred speech and slow response
[3]; Level 3, target plasma 3.5 microg/ml
  level of consciousness: not responding at all
[3]; Level 3 = 3.5 microg/ml target plasma, volunteers lost consciousness
  thalamic rCBF response to vibrotactile stimulation: abolished only at Level 3
[3]; during anesthesia, target plasma levels 0.5, 1.5, 3.5 microg/ml
  rCBF in the thalamus and in visual, parietal, and prefrontal cortical regions: reduced in a dose-dependent manner rCBF

From US20110152249A1, “EVALUATING CENTRAL NERVOUS SYSTEM” (THE GENERAL HOSPITAL CORPORATION, priority 2004, published 2011)
